Values of other authors, collected in US20190015445A1, “INJECTION […] DIOXIDE AND METHOD FOR MAKING SAME” (priority 2016, published 2019).
Where two headings read alike, the source gives them in different places.

For `[O][Cl+][O-]` [chlorine dioxide], the “solubility of chlorine dioxide” value (at 20° C., aqueous solution) is given as “about 2.9 g/L” and the “solubility of chlorine dioxide” value (at room temperature) is given as 2900 µg/mL.
